Reference: US12152048B2, “Nitroxoline prodrug and use thereof” (Jiangsu Yahong Meditech Co., Ltd., priority 2018, dated 2024)
Converted amounts (≈) assume the structure as drawn. Blank lines part the entries; values can stand above or below the molecule they belong to.

What was measured:
[1] = Determination of water solubility in phosphate buffer; assay type: physicochemical; conditions: for solubility at 24 h: thermodynamic from solid; for water solubility compared with nitroxoline: conclusion in words
From the text: Experimental instruments: 96-well filter plate (MSHVN4510 or MSHVN4550, Millipore); electronic digital display vortex mixer (MS3 Digital, IKA); multi-purpose vacuum pump (circulating water type, SHB-111, Zhengzhou Greatwall Scientific Industrial and Trade Co., Ltd.); balance (XSLT05, Mettler-Toledo); comfortable mixer (Eppendorf AG 22331 Hamburg, Eppendorf); liquid chromatography (LC-3AD, Shimadzu); mass spectrometry (API4000, Applied Biosystems, USA); sample injector (Anylytics AG System, CTC). Nitroxoline was prepared according to the method disclosed in Journal of Heterocyclic Chemistry, 1971, vol. 8, p 821 by Wisdom Pharmaceutical Co., Ltd.
Experimental process: 500 μL of phosphate buffer (pH=1.2, 4.5, 6.8 or 7.4) were added to a glass flask, to which 2 mg of compound powder were added. The flask was sealed with a cap and shaked on a mixer (VORTEX-GENIE2) at room temperature for 24 hours. The solution was subjected to vacuum filtration, and the filtrate was processed to determine the compound concentration by LC/MS/MS.

[2] = Stability in dog liver microsome; conditions: 2 μM, 37° C., 30 minutes
[3] = Stability in rat liver microsome; conditions: 2 μM, 37° C., 30 minutes
[4] = Stability in human liver microsome; conditions: 2 μM, 37° C., 30 minutes
Protocol: Experimental instruments: thermostatic shaker (SHA-B, Guohua Electric Appliance Co., Ltd.); centrifuge (5810R, Eppendorf); mass spectrometry (API4000, Applied Biosystems, USA); liquid chromatography (LC-30AD, Shimadzu); sample injector (CTC Analytics AG System, CTC).
Experimental process: 25 μg/mL alamethicin (Aldrich), 5 mM magnesium chloride and 0.5 mg/mL microsome (XENOTECH) were added to 100 mM phosphate buffer to obtain a coenzyme-free reaction solution. A portion of the coenzyme-free reaction solution was added with 1 mM reductive nicotinamide adenine dinucleotide phosphate (Aldrich) and 5 mM uridine diphosphate glucuronic acid (Aldrich) to obtain a coenzyme-containing reaction solution. The working solution of the compound of the present invention was added to the two reaction solutions so that the final concentration of the compound was 2 μM. Immediately after mixing well, 50 μL of the solution were taken out as the 0 minute sample, and 50 μL of the remaining sample were taken out after incubating at 37° C. for 30 minutes. All the samples taken out were immediately processed to precipitate protein, and centrifuged to obtain a supernate for the determination of the compound concentration by LC/MS/MS.

[5] = aqueous buffer, phosphate buffer pH 7.4, room temperature
[6] = simulated gastric fluid, phosphate buffer pH 1.2, room temperature

Structure (SMILES): O=C(O)CCC(=O)OCOc1ccc([N+](=O)[O-])c2cccnc12 [Compound 8, 4-((5-nitroquinolin-8-yloxy)methoxy)-4-oxobutanoic acid]
solubility at 24 h [1, 5]: < 0.44 µg/mL

Structure (SMILES): O=C(CCCCCCCO)OCOc1ccc([N+](=O)[O-])c2cccnc12 [Compound 10, (5-nitroquinolin-8-yloxy)methyl 8-hydroxyoctanoate]
solubility at 24 h [1, 5]: 39.1 µg/mL (≈ 108 µM)
Percentage of the compound remaining in dog liver microsome ([2]; with coenzyme): 0.01%
Percentage of the compound remaining in dog liver microsome ([2]; without coenzyme): 0.04%
Percentage of the compound remaining in rat liver microsome ([3]; with coenzyme): 0.02%
Percentage of the compound remaining in rat liver microsome ([3]; without coenzyme): 0.03%
Percentage of the compound remaining in human liver microsome ([4]; with coenzyme): 0.01%
Percentage of the compound remaining in human liver microsome ([4]; without coenzyme): 0.04%

Structure (SMILES): COC(=O)CCCCC(=O)OCOc1ccc([N+](=O)[O-])c2cccnc12 [Compound 11, methyl (5-nitroquinolin-8-yloxy)methyl adipate]
solubility at 24 h [1, 5]: 66.9 µg/mL (≈ 185 µM)
Percentage of the compound remaining in dog liver microsome ([2]; with coenzyme): 0.01%
Percentage of the compound remaining in dog liver microsome ([2]; without coenzyme): 0.04%
Percentage of the compound remaining in rat liver microsome ([3]; with coenzyme): 0.05%
Percentage of the compound remaining in rat liver microsome ([3]; without coenzyme): 0.03%
Percentage of the compound remaining in human liver microsome ([4]; with coenzyme): 0.01%
Percentage of the compound remaining in human liver microsome ([4]; without coenzyme): 0.01%

Structure (SMILES): CC(C)(C)OC(=O)N[C@@H](Cc1ccccc1)C(=O)OCOc1ccc([N+](=O)[O-])c2cccnc12 [Compound 13, (S)-(5-Nitroquinolin-8-yloxy)methyl 2-(tert-butoxycarbonylamino)-3-phenylpropionate]
Percentage of the compound remaining in dog liver microsome ([2]; with coenzyme): 0.02%
Percentage of the compound remaining in dog liver microsome ([2]; without coenzyme): 0.02%
Percentage of the compound remaining in rat liver microsome ([3]; with coenzyme): 0.01%
Percentage of the compound remaining in rat liver microsome ([3]; without coenzyme): 0.02%
Percentage of the compound remaining in human liver microsome ([4]; with coenzyme): 0.01%
Percentage of the compound remaining in human liver microsome ([4]; without coenzyme): 0.02%

Structure (SMILES): CC(=O)N[C@@H](CC(C)C)C(=O)NCC(=O)OCOc1ccc([N+](=O)[O-])c2cccnc12 [Compound 15, (S)-(5-nitroquinolin-8-yloxy)methyl 2-(2-acetamido-4-methylpentanamido)acetate]
solubility at 24 h [1, 5]: 205 µg/mL (≈ 475 µM)

Structure (SMILES): CSC[C@H](NC(C)=O)C(=O)OCOc1ccc([N+](=O)[O-])c2cccnc12 [Compound 16, (R)-(5-nitroquinolin-8-yloxy)methyl 2-acetamido-3-(methylthio)propionate]
solubility at 24 h [1, 5]: 254 µg/mL (≈ 669 µM)
solubility at 24 h [1, 6]: 443 µg/mL (≈ 1170 µM)

Structure (SMILES): CC(C)C(=O)N1CCC[C@@H]1C(=O)OCOc1ccc([N+](=O)[O-])c2cccnc12 [Compound 23, (R)-(5-nitroquinolin-8-yloxy)methyl 1-isopropionylpyrrolidine-2-carboxylate]
solubility at 24 h [1, 5]: 818 µg/mL (≈ 2110 µM)
water solubility compared with nitroxoline [1]: increased by several times
solubility at 24 h [1, 6]: 945 µg/mL (≈ 2440 µM)

Structure (SMILES): CC(C)(C)C(=O)N1CCC[C@@H]1C(=O)OCOc1ccc([N+](=O)[O-])c2cccnc12 [Compound 24, (R)-(5-nitroquinolin-8-yloxy)methyl 1-pivaloylpyrrolidine-2-carboxylate]
solubility at 24 h [1, 5]: 73.6 µg/mL (≈ 183 µM)
solubility at 24 h [1, 6]: 942 µg/mL (≈ 2350 µM)

Structure (SMILES): O=C(OCOc1ccc([N+](=O)[O-])c2cccnc12)[C@@H]1CCCN1C(=O)c1ccccn1 [Compound 25, (S)-(5-nitroquinolin-8-yloxy)methyl 1-pyridineformylpyrrolidine-2-carboxylate]
solubility at 24 h [1, 5]: 275 µg/mL (≈ 651 µM)

Structure (SMILES): CC(=O)N[C@@H](Cc1ccc(O)cc1)C(=O)N1CCC[C@H]1C(=O)OCOc1ccc([N+](=O)[O-])c2cccnc12 [Compound 28, (S)-(5-nitroquinolin-8-yloxy)methyl 1-((S)-2-acetamido-3-(4-hydroxyphenyl)propionyl)pyrrolidine-2-carboxylate]
solubility at 24 h [1, 5]: 25.1 µg/mL (≈ 48.1 µM)
solubility at 24 h [1, 6]: 342 µg/mL (≈ 654 µM)

Structure (SMILES): CC(=O)N[C@@H](CO)C(=O)N1CCC[C@H]1C(=O)OCOc1ccc([N+](=O)[O-])c2cccnc12 [Compound 30, (S)-(5-nitroquinolin-8-yloxy)methyl 1-((S)-2-acetamido-3-hydroxypropionyl)pyrrolidine-2-carboxylate]
solubility at 24 h [1, 5]: < 0.25 µg/mL
water solubility compared with nitroxoline [1]: increased by several times
solubility at 24 h [1, 6]: 940 µg/mL (≈ 2110 µM)

Structure (SMILES): COCC(=O)OCOc1ccc([N+](=O)[O-])c2cccnc12 [Compound 31, (5-nitroquinolin-8-yloxy)methyl 2-methoxyacetate]
solubility at 24 h [1, 5]: 10.8 µg/mL (≈ 37.1 µM)

Structure (SMILES): CC(=O)Oc1ccccc1C(=O)OCOc1ccc([N+](=O)[O-])c2cccnc12 [Compound 34, (5-nitroquinolin-8-yloxy)methyl 2-acetoxybenzoate]
solubility at 24 h [1, 5]: 6.67 µg/mL (≈ 17.4 µM)

Structure (SMILES): O=C(CCCCC(=O)OCOc1ccc([N+](=O)[O-])c2cccnc12)OCOc1ccc([N+](=O)[O-])c2cccnc12 [Compound 46, bis(5-nitroquinolin-8-yloxy)-methyl adipate]
Percentage of the compound remaining in dog liver microsome ([2]; with coenzyme): 0.01%
Percentage of the compound remaining in dog liver microsome ([2]; without coenzyme): 0.03%
Percentage of the compound remaining in rat liver microsome ([3]; with coenzyme): 0.00%
Percentage of the compound remaining in rat liver microsome ([3]; without coenzyme): 0.05%
Percentage of the compound remaining in human liver microsome ([4]; with coenzyme): 0.00%
Percentage of the compound remaining in human liver microsome ([4]; without coenzyme): 0.06%

Now from value to molecule:

solubility at 24 h [1, 5]: 28.4 µg/mL (≈ 94.1 µM)
Structure (SMILES): O=C(OCOc1ccc([N+](=O)[O-])c2cccnc12)C1CCC1 [Compound 32, (5-nitroquinolin-8-yloxy)methyl cyclobutanecarboxylate]

solubility at 24 h [1, 5]: 0.04 µg/mL (≈ 0.0945 µM)
Structure (SMILES): O=C(COc1ccc(Cl)cc1Cl)OCOc1ccc([N+](=O)[O-])c2cccnc12 [Compound 35, (5-nitroquinolin-8-yloxy)methyl 2-(2,4-dichlorophenoxy)acetate]

solubility at 24 h [1, 5]: 298 µg/mL (≈ 858 µM)
Structure (SMILES): O=C(CN1CCOCC1)OCOc1ccc([N+](=O)[O-])c2cccnc12 [Compound 36, (5-nitroquinolin-8-yloxy)methyl 2-morpholinoacetate]

solubility at 24 h [1, 5]: 7.4 µg/mL (≈ 23.2 µM)
Structure (SMILES): CCCCCC(=O)OCOc1ccc([N+](=O)[O-])c2cccnc12 [Compound 40, (5-nitroquinolin-8-yloxy)methyl hexanoate]

solubility at 24 h [1, 5]: < 0.4 µg/mL
Structure (SMILES): CCCCCCCC(=O)OCOc1ccc([N+](=O)[O-])c2cccnc12 [Compound 41, (5-nitroquinolin-8-yloxy)methyl octanoate]

solubility at 24 h [1, 5]: < 0.26 µg/mL
Structure (SMILES): CCCCCCCCCC(=O)OCOc1ccc([N+](=O)[O-])c2cccnc12 [Compound 42, (5-nitroquinolin-8-yloxy)methyl decanoate]

solubility at 24 h [1, 5]: < 0.25 µg/mL
Structure (SMILES): CCCCCCCCCCCC(=O)OCOc1ccc([N+](=O)[O-])c2cccnc12 [Compound 43, (5-nitroquinolin-8-yloxy)methyl dodecanoate]

solubility at 24 h [1, 5]: 19.9 µg/mL (≈ 68.9 µM)
Structure (SMILES): O=C1CCCC(Oc2ccc([N+](=O)[O-])c3cccnc23)O1 (stereo not drawn) [Compound 44, 6-(5-nitroquinolin-8-yloxy)-tetrahydropyran-2-one]

solubility at 24 h [1, 5]: 1040 µg/mL (≈ 2490 µM)
water solubility compared with nitroxoline [1]: increased by several times
Structure (SMILES): CC(C)OC(=O)OCOP(=O)(O)OCOc1ccc([N+](=O)[O-])c2cccnc12 [Compound 72, (hydroxy((5-nitroquinolin-8-yloxy)methoxy)phosphoryloxy)methyl isopropyl carbonate]

solubility at 24 h [1, 5]: 21.2 µg/mL (≈ 70.3 µM)
Structure (SMILES): Cc1oc(=O)oc1COc1ccc([N+](=O)[O-])c2cccnc12 [Compound 77, 4-methyl-5-((5-nitroquinolin-8-yloxy)methyl)-1,3-dioxol-2-one]
